This note sets out measurements from US9296745B2, “Diacylglycerol acyltransferase 2 inhibitors” (Pfizer Inc., priority 2012, dated 2016).

The target in test [1] is DGAT2 (Homo sapiens (Human), UniProt Q96PD7). Kind of test: IC50 determination for DGAT2 inhibitors in human hepatocytes ([1,3-14C]-glycerol incorporation into lipids). The class given is cell-based. The note with it: average IC50; cryopreserved human hepatocytes, selective DGAT1 inhibitor (3 μM) in all wells, 3 hour incubation with [1,3-14C]-glycerol; read-out: IC50 (nM) in primary human hepatocyte. As to the method: For evaluation of the effects of DGAT2 inhibitors in a cell-based setting, cryopreserved human hepatocytes (Lot QOC, Celsis, Chicago, Ill.) were thawed and plated onto type I collagen-coated plates according to the manufacturer's instructions. After 24 hours overnight recovery period, the cells were overlayed with media containing 250 μg/ml Matrigel (BD Biosciences, San Jose, Calif.). The following day, media was aspirated and replaced with serum-free Williams Media E (Life Technologies, Grand Island, N.Y.) containing 400 μM sodium dodecanoate (Sigma-Aldrich, St. Louis, Mo.). Forty minutes later, DGAT2 inhibitors (prepared as 100× stocks in 25% DMSO, 75% Williams' Media E) were added to the desired final concentration. […] After a 20 minute preincubation, 0.2 μCi [1,3-^14C]-glycerol (American Radio Chemicals, St. Louis, Mo.) was added to each well and mixed by gentle pipetting prior to a 3 hour incubation. At this point, media was aspirated and the cells were lysed in isopropyl alcohol:tetrahydrofuran (9:1) prior to centrifugation at 3000 rpm for 5 minutes. Radiolabeled lipids were resolved using a 2-solvent system by thin layer chromatography using standard technique (solvent 1 contained ethyl acetate: isopropyl alcohol: chloroform:methanol:0.25% potassium chloride in water (100:100:100:40.2:36.1, v/v/v/v) and solvent 2 contained hexane: diethyl ether: acetic acid (70:27:3, v/v/v)). After separation, radiolabeled lipids were visualized using a Molecular Dynamics' PhosphorImager system. The half maximal inhibitory concentrations (IC50 values) were determined using Graph Pad Prism (GraphPad Software, Inc., La Jolla, Calif.).

In test [2] the target is Human DGAT2 (hDGAT2) (Homo sapiens (Human), UniProt Q96PD7). Kind of test: In vitro DGAT2 assay, IC50 determination with hDGAT2 membrane fraction. The class given is biochemical. The note with it: geometric mean. Summed up:
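CHAPS-solubilized membrane fraction of FLAG-tagged hDGAT2 from baculovirus-infected SF9 cells (0.01 mg/mL) in 100 mM Hepes-NaOH pH 7.4, 20 mM MgCl2, 200 nM methyl arachidonyl fluorophosphonate; compounds pre-incubated 20 min with 0.04% BSA. Reaction 40 min at room temperature, stopped with H3PO4. [^14C]tridecanoylglycerol in organic phase counted; 11-point geometric mean IC50.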

Setting [3] is: background for complete inhibition of DGAT2 obtained with 50 μM (1R,2R)-2-({3′-Fluoro-4′-[(6-fluoro-1,3-benzothiazol-2-yl)amino]-1,1′-biphenyl-4-yl}carbonyl)cyclopentanecarboxylic acid, read-out: DGAT2 IC50.
The mark [4] stands for this setting: background for complete inhibition of DGAT2 obtained with Example 196-A instead of the cyclopentanecarboxylic acid reference, read-out: DGAT2 IC50 (nM), values in the parentheses.

Read-outs that look alike come from different tables or passages of the source.

Human DGAT2 (hDGAT2), sequence (Q96PD7 whole entry): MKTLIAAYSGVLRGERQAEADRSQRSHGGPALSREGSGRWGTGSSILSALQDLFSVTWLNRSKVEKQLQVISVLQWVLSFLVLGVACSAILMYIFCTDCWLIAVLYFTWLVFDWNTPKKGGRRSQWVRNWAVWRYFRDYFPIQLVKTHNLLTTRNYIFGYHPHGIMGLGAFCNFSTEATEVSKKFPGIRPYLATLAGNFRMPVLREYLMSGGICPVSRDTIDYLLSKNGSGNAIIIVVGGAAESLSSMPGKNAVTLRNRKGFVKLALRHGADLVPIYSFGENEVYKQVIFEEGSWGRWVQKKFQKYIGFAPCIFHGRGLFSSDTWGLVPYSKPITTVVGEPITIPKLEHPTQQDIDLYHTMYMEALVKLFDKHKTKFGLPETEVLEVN
DGAT2, sequence (Q96PD7 whole entry): as above

Consider `O=C([C@@H]1CCCN(c2ccc3nc(C4(c5ccccn5)CC4)[nH]c3n2)C1)N1CCCC1` [Example 82, (R)-(1-(2-(1-(Pyridin-2-yl)cyclopropyl)-3H-imidazo[4,5-b]pyridin-5-yl)piperidin-3-yl)(pyrrolidin-1-yl)methanone], for which the results for the IC50 in test [1] and in test [2] (setting [3]) were 15.8 nM and 165 nM, respectively.

For the compound `O=C([C@@H]1CCCN(c2ccc3nc(C4(n5cc(F)cn5)CC4)[nH]c3n2)C1)N1CCCC1` [Example 73, (R)-(1-(2-(1-(4-Fluoro-1H-pyrazol-1-yl)cyclopropyl)-3H-imidazo[4,5-b]pyridin-5-yl)piperidin-3-yl)(pyrrolidin-1-yl)methanone], the IC50 in test [1] was determined as 7.9 nM; in test [2] (setting [3]) it was 96.9 nM; in test [2] (setting [4]), 85 nM.

For `C[C@@H](c1nc2ccc(N3CCC[C@@H](C(=O)N4CCCC4)C3)nc2[nH]1)n1cc(Cl)cn1` [Example 196-A, ((R)-1-(2-((S)-1-(4-Chloro-1H-pyrazol-1-yl)ethyl)-3H-imidazo[4,5-b]pyridin-5-yl)piperidin-3-yl)(pyrrolidin-1-yl)methanone], the IC50 in test [1] worked out at 4.6 nM; in test [2] (setting [3]) it was 14.5 nM; in test [2] (setting [4]), 20.6 nM.

Turning to `O=C([C@@H]1CCCN(c2ncc3nc(C4(n5cc(Cl)cn5)CC4)[nH]c3n2)C1)N1CCCC1` [Example 108, (R)-(1-(8-(1-(4-Chloro-1H-pyrazol-1-yl)cyclopropyl)-9H-purin-2-yl)piperidin-3-yl)(pyrrolidin-1-yl)methanone], the results for the half-maximal inhibitory concentration (IC50) in test [1], in test [2] (setting [3]) and in test [2] (setting [4]) were 2.8 nM, 28.7 nM and 26.2 nM, respectively.

On to `O=C([C@@H]1CCCN(c2ncc3nc(C4(n5cc(F)cn5)CC4)[nH]c3n2)C1)N1CCCC1` [Example 209, (R)-(1-(8-(1-(4-Fluoro-1H-pyrazol-1-yl)cyclopropyl)-9H-purin-2-yl)piperidin-3-yl)(pyrrolidin-1-yl)methanone], for which the half-inhibitory concentration (IC50) in test [1] amounted to 8.9 nM; in test [2] (setting [3]), 101 nM.

Take `O=C([C@@H]1CCCN(c2ccc3nc(-c4ccnc(C5CC5)n4)[nH]c3n2)C1)N1CCCC1` [Example 95, (R)-(1-(2-(2-Cyclopropylpyrimidin-4-yl)-3H-imidazo[4,5-b]pyridin-5-yl)piperidin-3-yl)(pyrrolidin-1-yl)methanone]: the 50% inhibitory concentration (IC50) in test [1] was 15.9 nM; in test [2] (setting [3]) it was 18.2 nM.

Turning to `CC(c1nc2ccc(N3CCC[C@@H](C(=O)N4CCCC4)C3)nc2[nH]1)n1cccn1` (stereo partly drawn) [Example 58, (R)-(1-(2-(1-(1H-Pyrazol-1-yl)ethyl)-3H-imidazo[4,5-b]pyridin-5-yl)piperidin-3-yl)(pyrrolidin-1-yl)methanone], the values for the IC50 in test [1] and in test [2] (setting [3]) were 86.8 nM and 363 nM, respectively.

Take `O=C([C@@H]1CCCN(c2ccc3nc(C4(c5cccnc5)CC4)[nH]c3n2)C1)N1CCCC1` [Example 81, (R)-(1-(2-(1-(Pyridin-3-yl)cyclopropyl-1)-3H-imidazo[4,5-b]pyridin-5-yl)piperidin-3-yl)(pyrrolidin-1-yl)methanone]: the half-inhibitory concentration (IC50) in test [1] was determined as 47.7 nM; in test [2] (setting [3]) it was 204 nM.

As to `O=C([C@H]1CN(c2ccc3nc(-c4cccc(C(F)F)n4)[nH]c3n2)CCO1)N1CCCC1` [Example 175, (R)-(4-(2-(6-(Difluoromethyl)pyridin-2-yl)-3H-imidazo[4,5-b]pyridin-5-yl)morpholin-2-yl)(pyrrolidin-1-yl)methanone], the IC50 in test [1] amounted to 71.7 nM; in test [2] (setting [3]), 91.3 nM.

As to `C[C@H](c1nc2ccc(N3CCC[C@@H](C(=O)N4CCCC4)C3)nc2[nH]1)n1cc(Cl)cn1` [Example 197, ((R)-1-(2-((R)-1-(4-chloro-1H-pyrazol-1-yl)ethyl)-3H-imidazo[4,5-b]pyridin-5-yl)piperidin-3-yl)(pyrrolidin-1-yl)methanone], the IC50 was found to be 5.5 nM in test [1] and 33.7 nM in test [2] (setting [3]).

For `O=C([C@H]1CN(c2ccc3nc(C4(n5cc(Cl)cn5)CC4)[nH]c3n2)CCO1)N1CCCC1` [Example 141, (R)-(4-(2-(1-(4-Chloro-1H-pyrazol-1-yl)cyclopropyl)-3H-imidazo[4,5-b]pyridin-5-yl)morpholin-2-yl)(pyrrolidin-1-yl)methanone], the values for the IC50 in test [1], in test [2] (setting [3]) and in test [2] (setting [4]) were 10.7 nM, 354 nM and 301 nM, respectively.
